Here are results for 16 molecules from patent US20090036448A1, “PYRIMIDINE DERIVATIVES AND METHODS OF TREATMENT RELATED TO THE USE THEREOF” (TAISHO PHARMECUTICAL CO., LTD., priority 2004, published 2009).

Sequence of MCH receptor (Q99705 whole entry): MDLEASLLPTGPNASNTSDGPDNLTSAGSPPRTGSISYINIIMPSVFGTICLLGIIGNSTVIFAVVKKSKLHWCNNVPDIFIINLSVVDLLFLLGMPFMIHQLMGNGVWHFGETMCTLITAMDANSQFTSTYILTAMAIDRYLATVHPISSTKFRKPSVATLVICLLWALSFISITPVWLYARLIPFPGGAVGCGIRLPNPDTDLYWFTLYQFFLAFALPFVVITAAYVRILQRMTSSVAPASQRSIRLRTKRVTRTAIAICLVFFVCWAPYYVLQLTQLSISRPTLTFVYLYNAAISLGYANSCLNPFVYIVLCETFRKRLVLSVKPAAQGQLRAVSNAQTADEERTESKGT

The assay has as its target MCH receptor (Homo sapiens, UniProt Q99705). Put plainly: Receptor binding assay with Radiolabelled MCH Ligand. As to conditions: class by percent of control at 10^-7 M or IC50. Details: expressed in transfected cells; host or cells: 293 cells (human kidney, ATCC), transient transfection; crude membranes. Summed up:
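Membranes from 293 cells transiently transfected with human MCH receptor competed test compounds against a radiolabelled MCH ligand in Tris-HCl pH 7.4 with MgCl2 and EDTA for 60–120 min at room temperature. Filtration and scintillation counting followed, with cold MCH defining nonspecific binding. IC50 came from logit-log plots of %B/B0, and Ki from the Cheng-Prusoff equation.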
Take `Cc1nc(N[C@H]2CC[C@@H](NC(=O)COCc3ccccc3)CC2)cc(N(C)C)n1` [compound 206]: the class is given as 3 (Class 3: The value of percent of control at 10^−7 M was more than 60% or the value of IC50 was more than 200 nM.).
Consider `C=CCOC(=O)N[C@H]1CC[C@@H](Nc2cc(N(C)C)nc(C)n2)CC1` [compound 462], for which the class was 3 (Class 3: The value of percent of control at 10^−7 M was more than 60% or the value of IC50 was more than 200 nM.).
The result for `Cc1nc(N[C@H]2CC[C@@H](NC(=O)C3C[C@H]3c3ccccc3)CC2)cc(N(C)C)n1` (stereo partly shown) [compound 236] reads 3 (Class 3: The value of percent of control at 10^−7 M was more than 60% or the value of IC50 was more than 200 nM.); that for `Cc1nc(N[C@H]2CC[C@@H](NC(=O)C3(c4ccc(Cl)cc4)CCCC3)CC2)cc(N(C)C)n1` [compound 214], 1 (Class 1: The value of percent of control at 10^−7 M was less than 40% or the value of IC50 was less than 50 nM.); that for `Cc1nc(N[C@H]2CC[C@@H](NS(=O)(=O)Cc3ccc(Cl)c(Cl)c3)CC2)cc(N(C)C)n1` [compound 473], 3 (Class 3: The value of percent of control at 10^−7 M was more than 60% or the value of IC50 was more than 200 nM.).
In the case of `Cc1nc(N[C@H]2CC[C@@H](NCC(C)(C)Oc3ccc(Cl)cc3)CC2)cc(N(C)C)n1` [compound 408] it was 3 (Class 3: The value of percent of control at 10^−7 M was more than 60% or the value of IC50 was more than 200 nM.); in that of `Cc1nc(N[C@H]2CC[C@@H](NC(=O)Cc3c[nH]c4ccc(OCc5ccccc5)cc34)CC2)cc(N(C)C)n1` [compound 318], 3 (Class 3: The value of percent of control at 10^−7 M was more than 60% or the value of IC50 was more than 200 nM.).
The result for `Cc1nc(N[C@H]2CC[C@@H](NCCOCc3ccccc3)CC2)cc(N(C)C)n1` [compound 359] reads 3 (Class 3: The value of percent of control at 10^−7 M was more than 60% or the value of IC50 was more than 200 nM.); that for `Cc1nc(N[C@H]2CC[C@@H](NCc3cccc([N+](=O)[O-])c3)CC2)cc(N(C)C)n1` [compound 379], 3 (Class 3: The value of percent of control at 10^−7 M was more than 60% or the value of IC50 was more than 200 nM.); that for `Cc1nc(N[C@H]2CC[C@@H](NC(=O)c3cc(C(C)(C)C)nn3Cc3ccc(Cl)cc3Cl)CC2)cc(N(C)C)n1` [compound 270], 3 (Class 3: The value of percent of control at 10^−7 M was more than 60% or the value of IC50 was more than 200 nM.).
`Cc1nc(N[C@H]2CC[C@@H](NC(=O)/C=C/c3ccc(OC(F)(F)F)cc3)CC2)cc(N(C)C)n1` [compound 269]: the class is listed as 3 (Class 3: The value of percent of control at 10^−7 M was more than 60% or the value of IC50 was more than 200 nM.).
In the case of `Cc1nc(N[C@H]2CC[C@@H](NS(=O)(=O)c3ccc(C)c(Cl)c3)CC2)cc(N(C)C)n1` [compound 485] it was 3 (Class 3: The value of percent of control at 10^−7 M was more than 60% or the value of IC50 was more than 200 nM.); in that of `Cc1nc(N[C@H]2CC[C@@H](NC(=O)c3cc(C)n(Cc4cccs4)c3C)CC2)cc(N(C)C)n1` [compound 283], 3 (Class 3: The value of percent of control at 10^−7 M was more than 60% or the value of IC50 was more than 200 nM.); in that of `Cc1nc(N[C@H]2CC[C@@H](NCc3ccc(OC(F)(F)F)cc3)CC2)cc(N(C)C)n1` [compound 393], 3 (Class 3: The value of percent of control at 10^−7 M was more than 60% or the value of IC50 was more than 200 nM.).
The result for `CCCc1ccc(S(=O)(=O)N[C@H]2CC[C@@H](Nc3cc(N(C)C)nc(C)n3)CC2)cc1` [compound 487] reads 3 (Class 3: The value of percent of control at 10^−7 M was more than 60% or the value of IC50 was more than 200 nM.).
In the case of `Cc1nc(N[C@H]2CC[C@@H](NS(=O)(=O)c3cccn3-c3ncc(C(F)(F)F)cc3Cl)CC2)cc(N(C)C)n1` [compound 516] it was 3 (Class 3: The value of percent of control at 10^−7 M was more than 60% or the value of IC50 was more than 200 nM.).
